What was measured:
[1] = target: human sEH (Homo sapiens (Human), UniProt P34913); assay: Fluorescence-based sEH inhibitor screening assay (PHOME substrate); assay type: biochemical; conditions: dose-dependent fluorescence assay
Experimental: Fluorescence-based sEH inhibitor screening assay provided a convenient method for screening human epoxide hydrolase inhibitors. The assay utilized (3-phenyl-oxiranyl)-acetic acid cyano-(6-methoxy-naphthalen-2-yl)-methyl ester (PHOME) as substrate. […] The cyanohydrin quickly decomposed into cyanide ion and the highly fluorescent 6-methoxy-2-naphthaldehyde which was analyzed using an excitation wavelength of 330 nm and emission wavelength of 465 nm after a 30-minute reaction time in darkness.
The background AF was subtracted from the 100% initial activity and inhibitor AFs.

[2] = system: Plasma protein; assay: Plasma protein binding, human; assay type: in vitro ADME
[3] = system: Plasma protein; assay: Plasma protein binding, mouse; assay type: in vitro ADME
[4] = Metabolic stability, human; assay type: in vitro ADME
[5] = Metabolic stability, mouse; assay type: in vitro ADME
[6] = Aqueous solubility @ pH 7.4; assay type: physicochemical
[7] = system: Caco-2; assay: Caco-2 permeability; assay type: in vitro ADME
[8] = target: inducible nitric oxide synthase (iNOS) (Mus musculus (Mouse), UniProt P29477); assay: iNOS inhibition primary assay; assay type: biochemical; conditions: 10 μM of each compound; mouse cell line
Experimental: Biochemical assay results are presented as the percent inhibition of specific binding or activity. The concentration of each compound was 10 μM.

human sEH, sequence (P34913 whole entry): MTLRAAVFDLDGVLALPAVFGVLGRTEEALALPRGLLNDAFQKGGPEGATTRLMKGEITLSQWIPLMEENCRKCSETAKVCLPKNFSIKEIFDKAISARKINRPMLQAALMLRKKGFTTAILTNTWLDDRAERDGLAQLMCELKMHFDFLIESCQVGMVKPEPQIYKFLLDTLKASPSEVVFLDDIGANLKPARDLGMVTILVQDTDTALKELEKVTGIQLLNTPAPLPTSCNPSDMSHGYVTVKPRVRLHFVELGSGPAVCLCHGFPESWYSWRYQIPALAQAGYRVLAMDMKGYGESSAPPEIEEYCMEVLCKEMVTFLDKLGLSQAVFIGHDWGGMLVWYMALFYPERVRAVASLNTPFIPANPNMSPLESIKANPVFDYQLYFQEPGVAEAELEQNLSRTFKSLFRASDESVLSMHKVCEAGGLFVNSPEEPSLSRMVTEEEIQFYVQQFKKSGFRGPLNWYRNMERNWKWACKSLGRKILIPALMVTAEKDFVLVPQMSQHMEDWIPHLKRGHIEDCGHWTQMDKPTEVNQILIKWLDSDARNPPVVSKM

O=C(NC12CC3CC(CC(C3)C1)C2)NS(=O)(=O)c1ccccc1 [Compound 5d, N-(((3s,5s,7s)-adamantan-1-yl)carbamoyl)benzenesulfonamide]
IC50 [1]: 104 nM

O=C(NC12CC3CC(CC(C3)C1)C2)NS(=O)(=O)c1ccc2ccccc2c1 [Compound 5e]
IC50 [1]: 1.21 nM
Plasma protein binding % of stability [2]: 99%
Plasma protein binding % of bound comp [3]: 98%
Plasma protein binding % of stability [3]: 88%
Metabolic stability Half life [4]: 33.4 min
Metabolic stability % remaining after 1 h [4]: 45%
Metabolic stability Half life [5]: 2.2 min
Metabolic stability % remaining after 1 h [5]: 0%

O=C(NC12CC3CC(CC(C3)C1)C2)NS(=O)(=O)c1ccc(OC(F)(F)F)cc1 [Compound 5i, N-(((3s,5s,7s)-adamantan-1-yl)carbamoyl)-4-(trifluoromethoxy)benzenesulfonamide]
IC50 [1]: 1.69 nM
Aqueous Solubility @ pH 7.4 [6]: 53 μg/mL
Efflux ratio ([7]; Caco-2): 0.8
Caco-2 permeability Aical to Basal (Papp) ([7]; apical to basal): 14.9 cm/sec (10^−6)
Caco-2 permeability Basal to Apical (Papp) ([7]; basal to apical): 12.6 cm/sec (10^−6)
Plasma protein binding % of stability [2]: 99%
Plasma protein binding % of bound comp [3]: 98%
Metabolic stability Half life [4]: 106.3 min
Metabolic stability % remaining after 1 h [4]: 80%
Metabolic stability Half life [5]: 4.9 min
Metabolic stability % remaining after 1 h [5]: 0%

C/C(N)=N\C(=N\S(=O)(=O)c1ccc(OC(F)(F)F)cc1)NC12CC3CC(CC(C3)C1)C2 [Compound 7i]
IC50 [1]: 9.89 nM

CSC(=N)NC(=NS(=O)(=O)c1ccc(C(C)(C)C)cc1)NC12CC3CC(CC(C3)C1)C2 [Compound 8b, methyl N—N′-((3s,5s,7s)-adamantan-1-yl)-N′-((4-(tert-butyl)phenyl)sulfonyl)carbamimidoyl)carbamimidothioate]
% iNOS inhibition [8]: 52%

CS/C(N)=N/C(=NS(=O)(=O)c1ccc(OC(F)(F)F)cc1)NC12CC3CC(CC(C3)C1)C2 [Compound 8i]
IC50 [1]: 1.02 nM

C[Se]C(=N)NC(=NS(=O)(=O)c1ccc(C(C)(C)C)cc1)NC12CC3CC(CC(C3)C1)C2 [Compound 9b, methyl N—N′-((3s,5s,7s)-adamantan-1-yl)-N′-((4-(tert-butyl)phenyl)sulfonyl)carbamimidoyl)carbamimidoselenoate]
% iNOS inhibition [8]: 95%

COc1ccc(S(=O)(=O)/N=C(\N=C(/N)[Se]C)NC23CC4CC(CC(C4)C2)C3)cc1 [Compound 9c]
% iNOS inhibition [8]: 94%

C[Se]C(=N)NC(=NS(=O)(=O)c1ccc(C#N)cc1)NC12CC3CC(CC(C3)C1)C2 [Compound 9h, methyl N—N′-((3s,5s,7s)-adamantan-1-yl)-N′-((4-cyanophenyl)-sulfonyl)carbamimidoyl)carbamimidoselenoate]
% iNOS inhibition [8]: 93%

C[Se]/C(N)=N/C(=NS(=O)(=O)c1ccc(OC(F)(F)F)cc1)NC12CC3CC(CC(C3)C1)C2 [Compound 9i]
IC50 [1]: 3.84 nM
% iNOS inhibition [8]: 87%

C[Se]C(=N)NC(=NS(=O)(=O)c1ccc(C(F)(F)F)cc1)NC12CC3CC(CC(C3)C1)C2 [Compound 9j, methyl N—N′-((3s,5s,7s)-adamantan-1-yl)-N′-((4-(trifluoromethyl)phenyl)sulfonyl)carbamimidoyl)carbamimidoselenoate]
% iNOS inhibition [8]: 90%

O=S(=O)(NC(=S)NC12CC3CC(CC(C3)C1)C2)c1ccccc1 [Compound 11c, N-(((3s,5s,7s)-adamantan-1-yl)carbamothioyl)benzenesulfonamide]
IC50 [1]: 131 nM

O=S(=O)(NC(=S)NC12CC3CC(CC(C3)C1)C2)c1ccc(OC(F)(F)F)cc1 [Compound 11d, N-(((3s,5s,7s)-adamantan-1-yl)carbamothioyl)-4-(trifluoromethoxy)benzenesulfonamide]
IC50 [1]: 4.66 nM

NN/C(=N/S(=O)(=O)c1ccc(OC(F)(F)F)cc1)NC12CC3CC(CC(C3)C1)C2 [Compound 13i]
IC50 [1]: 154 nM

Source: patent US20250049736A1, “SULFONAMIDE DERIVATIVES AND THEIR USE AS SOLUBLE EPOXIDE HYDROLASE INHIBITORS” (THE UNITED STATES OF AMERICA, AS REPRESENTED BY THE …, priority 2021, published 2025)
